The results in this text go back to PubChem BioAssay (NCI).

Some test systems named below: EKVX NSCLC; NCI-H522 lung; NCI-H460 lung; A498 renal; SNB-19 CNS; MDA-MB-231 breast; BT-549 breast; U251 CNS; SN12C renal; SNB-75 CNS.
Assay in all cases: growth of human tumour cells (NCI), 48 h

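Five concentrations, 48 hours, 96-well plates. At the GI50, growth is halved. At the TGI there is no net growth.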

`CN1c2ccccc2C(C)(C)C12CC(c1ccc(Cl)c(S(=O)(=O)N3CCCC3)c1)=NO2` (stereo not given): the GI50 in the test with EKVX NSCLC is > 100 µM; in the test with NCI-H522 lung, > 100 µM; in the test with NCI-H460 lung, 0.375 µM; in the test with A498 renal, > 100 µM; with SNB-19 CNS, > 100 µM; with MDA-MB-231 breast it was > 100 µM. Moreover, the GI50 in the test on BT-549 breast was > 100 µM; with U251 CNS it was 0.531 µM; in the test on SN12C renal it was > 100 µM; with SNB-75 CNS, > 100 µM. Moreover, the TGI in the test with EKVX NSCLC, in the test with NCI-H522 lung, with NCI-H460 lung, in the test on A498 renal, in the test on SNB-19 CNS and with MDA-MB-231 breast was > 100 µM throughout. Moreover, the TGI with BT-549 breast, in the test on U251 CNS, with SN12C renal and in the test with SNB-75 CNS was > 100 µM throughout.

Take `COc1ccc2c(c1)C(=O)c1c-2n(CCCCl)c(=O)c2cc(N(C)C)ccc12`: the GI50 with EKVX NSCLC was > 100 µM; with NCI-H522 lung it was 18.9 µM; in the test on NCI-H460 lung, 73 µM; in the test with A498 renal it was 95.6 µM; in the test on SNB-19 CNS it was 56.4 µM; in the test on MDA-MB-231 breast, 21.8 µM. For the same molecule, the GI50 in the test on BT-549 breast was 26 µM; in the test with U251 CNS, 23.1 µM; in the test on SN12C renal it was 49.8 µM; in the test on SNB-75 CNS, 21.3 µM. The TGI is > 100 µM with EKVX NSCLC; > 100 µM in the test on NCI-H522 lung; > 100 µM in the test on NCI-H460 lung; > 100 µM in the test with A498 renal; > 100 µM in the test on SNB-19 CNS; 81 µM in the test on MDA-MB-231 breast. The TGI in the test on BT-549 breast was > 100 µM; in the test on U251 CNS, 84.2 µM; in the test on SN12C renal it was > 100 µM; with SNB-75 CNS it was 69.2 µM.
